Results from the supplement of paper PMC10307832.

Key:
Experiment in all cases: relative viability (nuclei count vs DMSO), 5 days (fraction); higher = more cells survive
LOU-NH91 = test system: LOU-NH91
Summary of the method: (§1)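 One day after seeding in 1536-well plates, lung cancer cell lines were dosed by pin tool. Dosing was either single-drug or a fixed anchor-drug dose plus five library-drug doses (not always all listed) in √10 steps. After 5 days, nuclei were stained in one fix-and-stain step and counted on 4× images, and relative viability is the nuclei count of treated wells over that of vehicle wells, given as the median of duplicate plates.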

HCC-44 = test system: HCC-44
Summary of the method: as §1

NCI-H838 = test system: NCI-H838
Summary of the method: as §1

HCC-78 = test system: HCC-78
Summary of the method: as §1

NCI-H727 = test system: NCI-H727
Summary of the method: as §1

NCI-H1755 = test system: NCI-H1755
Summary of the method: as §1

SW 1573 = test system: SW 1573
Summary of the method: as §1

HCC-366 = test system: HCC-366
Summary of the method: as §1

NCI-H1734 = test system: NCI-H1734
Summary of the method: as §1

NCI-H1650 = test system: NCI-H1650
Summary of the method: as §1

NCI-H2009 = test system: NCI-H2009
Summary of the method: as §1

UMC-11 = test system: UMC-11
Summary of the method: as §1

ABC-1 = test system: ABC-1
Summary of the method: as §1

LK-2 = test system: LK-2
Summary of the method: as §1

201T = test system: 201T
Summary of the method: as §1

NCI-H520 = test system: NCI-H520
Summary of the method: as §1

NCI-H2405 = test system: NCI-H2405
Summary of the method: as §1

NCI-H2228 = test system: NCI-H2228
Summary of the method: as §1

NCI-H1666 = test system: NCI-H1666
Summary of the method: as §1

NCI-H1355 = test system: NCI-H1355
Summary of the method: as §1

BEN = test system: BEN
Summary of the method: as §1

NCI-H2347 = test system: NCI-H2347
Summary of the method: as §1

NCI-H358 = test system: NCI-H358
Summary of the method: as §1

O=C(O)CCCCC(CCSCc1ccccc1)SCc1ccccc1 (centres undefined) [CPI-613] + C[C@@H](Oc1cc(-c2cnn(C3CCNCC3)c2)cnc1N)c1c(Cl)ccc(F)c1Cl [Crizotinib] (partner 1 µM)
relative viability (LOU-NH91; first compound 5 µM): 0.801 | relative viability (LOU-NH91; first compound 15.81 µM): 0.692 | relative viability (LOU-NH91; first compound 50 µM): 0.765 | relative viability (LOU-NH91; first compound 158.11 µM): 0.71 | relative viability (LOU-NH91; first compound 500 µM): 0.722 | relative viability (HCC-44; first compound 5 µM): 0.834 | relative viability (HCC-44; first compound 15.81 µM): 0.791 | relative viability (HCC-44; first compound 50 µM): 0.785 | relative viability (HCC-44; first compound 158.11 µM): 0.295 | relative viability (HCC-44; first compound 500 µM): 0.0369 | relative viability (NCI-H838; first compound 5 µM): 0.882 | relative viability (NCI-H838; first compound 15.81 µM): 0.833 | relative viability (NCI-H838; first compound 50 µM): 0.803 | relative viability (NCI-H838; first compound 158.11 µM): 0.598 | relative viability (NCI-H838; first compound 500 µM): 0.0806 | relative viability (HCC-78; first compound 5 µM): 0.346 | relative viability (HCC-78; first compound 15.81 µM): 0.318 | relative viability (HCC-78; first compound 158.11 µM): 0.348 | relative viability (HCC-78; first compound 500 µM): 0.331 | relative viability (NCI-H727; first compound 5 µM): 0.875 | relative viability (NCI-H727; first compound 15.81 µM): 0.743 | relative viability (NCI-H727; first compound 50 µM): 0.797 | relative viability (NCI-H727; first compound 158.11 µM): 0.244 | relative viability (NCI-H727; first compound 500 µM): 0.0831 | relative viability (NCI-H1755; first compound 5 µM): 0.795 | relative viability (NCI-H1755; first compound 15.81 µM): 0.835 | relative viability (NCI-H1755; first compound 50 µM): 0.822 | relative viability (NCI-H1755; first compound 158.11 µM): 0.386 | relative viability (NCI-H1755; first compound 500 µM): 0.142 | relative viability (SW 1573; first compound 5 µM): 0.81 | relative viability (SW 1573; first compound 15.81 µM): 0.749 | relative viability (SW 1573; first compound 50 µM): 0.878 | relative viability (SW 1573; first compound 158.11 µM): 0.819 | relative viability (SW 1573; first compound 500 µM): 0.419 | relative viability (HCC-366; first compound 5 µM): 0.533 | relative viability (HCC-366; first compound 15.81 µM): 0.483 | relative viability (HCC-366; first compound 50 µM): 0.381 | relative viability (HCC-366; first compound 158.11 µM): 0.331 | relative viability (HCC-366; first compound 500 µM): 0.0154 | relative viability (NCI-H1734; first compound 5 µM): 0.695 | relative viability (NCI-H1734; first compound 15.81 µM): 0.685 | relative viability (NCI-H1734; first compound 50 µM): 0.62 | relative viability (NCI-H1734; first compound 158.11 µM): 0.279 | relative viability (NCI-H1734; first compound 500 µM): 0.113 | relative viability (NCI-H1650; first compound 5 µM): 0.991 | relative viability (NCI-H1650; first compound 15.81 µM): 0.854 | relative viability (NCI-H1650; first compound 50 µM): 0.853 | relative viability (NCI-H1650; first compound 158.11 µM): 0.579 | relative viability (NCI-H1650; first compound 500 µM): 0.0088 | relative viability (NCI-H2009; first compound 5 µM): 1.1 | relative viability (NCI-H2009; first compound 15.81 µM): 1.01 | relative viability (NCI-H2009; first compound 50 µM): 1.04 | relative viability (NCI-H2009; first compound 158.11 µM): 0.462 | relative viability (NCI-H2009; first compound 500 µM): 0.0097 | relative viability (UMC-11; first compound 5 µM): 0.578 | relative viability (UMC-11; first compound 15.81 µM): 0.668 | relative viability (UMC-11; first compound 50 µM): 0.696 | relative viability (UMC-11; first compound 158.11 µM): 0.298 | relative viability (UMC-11; first compound 500 µM): 0.0636 | relative viability (ABC-1; first compound 5 µM): 0.984 | relative viability (ABC-1; first compound 15.81 µM): 0.855 | relative viability (ABC-1; first compound 50 µM): 0.875 | relative viability (ABC-1; first compound 158.11 µM): 0.367 | relative viability (ABC-1; first compound 500 µM): 0.213 | relative viability (LK-2; first compound 5 µM): 0.225 | relative viability (LK-2; first compound 15.81 µM): 0.191 | relative viability (LK-2; first compound 50 µM): 0.227 | relative viability (LK-2; first compound 158.11 µM): 0.219 | relative viability (LK-2; first compound 500 µM): 0.249 | relative viability (201T; first compound 5 µM): 1.04 | relative viability (201T; first compound 15.81 µM): 0.989 | relative viability (201T; first compound 50 µM): 0.94 | relative viability (201T; first compound 158.11 µM): 0.93 | relative viability (201T; first compound 500 µM): 0.984 | relative viability (NCI-H520; first compound 5 µM): 0.721 | relative viability (NCI-H520; first compound 15.81 µM): 0.716 | relative viability (NCI-H520; first compound 50 µM): 0.626 | relative viability (NCI-H520; first compound 158.11 µM): 0.233 | relative viability (NCI-H520; first compound 500 µM): 0.106 | relative viability (NCI-H2405; first compound 5 µM): 0.855 | relative viability (NCI-H2405; first compound 15.81 µM): 0.842 | relative viability (NCI-H2405; first compound 50 µM): 0.825 | relative viability (NCI-H2405; first compound 158.11 µM): 0.828 | relative viability (NCI-H2405; first compound 500 µM): 0.829 | relative viability (NCI-H2228; first compound 5 µM): 0.513 | relative viability (NCI-H2228; first compound 15.81 µM): 0.481 | relative viability (NCI-H2228; first compound 50 µM): 0.52 | relative viability (NCI-H2228; first compound 158.11 µM): 0.203 | relative viability (NCI-H2228; first compound 500 µM): 0.0468 | relative viability (NCI-H1666; first compound 5 µM): 0.863 | relative viability (NCI-H1666; first compound 15.81 µM): 0.995 | relative viability (NCI-H1666; first compound 50 µM): 1.03 | relative viability (NCI-H1666; first compound 158.11 µM): 0.236 | relative viability (NCI-H1666; first compound 500 µM): 0.131 | relative viability (NCI-H1355; first compound 5 µM): 1.09 | relative viability (NCI-H1355; first compound 15.81 µM): 1.01 | relative viability (NCI-H1355; first compound 50 µM): 1.07 | relative viability (NCI-H1355; first compound 158.11 µM): 0.152 | relative viability (NCI-H1355; first compound 500 µM): 0.136 | relative viability (BEN; first compound 5 µM): 0.802 | relative viability (BEN; first compound 15.81 µM): 0.739 | relative viability (BEN; first compound 50 µM): 0.807 | relative viability (BEN; first compound 158.11 µM): 0.743 | relative viability (BEN; first compound 500 µM): 0.769 | relative viability (NCI-H2347; first compound 5 µM): 0.645 | relative viability (NCI-H2347; first compound 15.81 µM): 0.555 | relative viability (NCI-H2347; first compound 50 µM): 0.695 | relative viability (NCI-H2347; first compound 158.11 µM): 0.669 | relative viability (NCI-H2347; first compound 500 µM): 0.55 | relative viability (NCI-H358; first compound 5 µM): 0.659 | relative viability (NCI-H358; first compound 15.81 µM): 0.606 | relative viability (NCI-H358; first compound 50 µM): 0.501 | relative viability (NCI-H358; first compound 158.11 µM): 0.104 | relative viability (NCI-H358; first compound 500 µM): 0.0191
